Key:
ADAR1p150 = target: T1, ADAR1p150 (Homo sapiens, UniProt P55265); assay: In vitro editing assay, ADAR1p150; format: biochemical; settings: for IC50: ADAR1p150 (not shown)
T1 sequence (P55265 1-1226): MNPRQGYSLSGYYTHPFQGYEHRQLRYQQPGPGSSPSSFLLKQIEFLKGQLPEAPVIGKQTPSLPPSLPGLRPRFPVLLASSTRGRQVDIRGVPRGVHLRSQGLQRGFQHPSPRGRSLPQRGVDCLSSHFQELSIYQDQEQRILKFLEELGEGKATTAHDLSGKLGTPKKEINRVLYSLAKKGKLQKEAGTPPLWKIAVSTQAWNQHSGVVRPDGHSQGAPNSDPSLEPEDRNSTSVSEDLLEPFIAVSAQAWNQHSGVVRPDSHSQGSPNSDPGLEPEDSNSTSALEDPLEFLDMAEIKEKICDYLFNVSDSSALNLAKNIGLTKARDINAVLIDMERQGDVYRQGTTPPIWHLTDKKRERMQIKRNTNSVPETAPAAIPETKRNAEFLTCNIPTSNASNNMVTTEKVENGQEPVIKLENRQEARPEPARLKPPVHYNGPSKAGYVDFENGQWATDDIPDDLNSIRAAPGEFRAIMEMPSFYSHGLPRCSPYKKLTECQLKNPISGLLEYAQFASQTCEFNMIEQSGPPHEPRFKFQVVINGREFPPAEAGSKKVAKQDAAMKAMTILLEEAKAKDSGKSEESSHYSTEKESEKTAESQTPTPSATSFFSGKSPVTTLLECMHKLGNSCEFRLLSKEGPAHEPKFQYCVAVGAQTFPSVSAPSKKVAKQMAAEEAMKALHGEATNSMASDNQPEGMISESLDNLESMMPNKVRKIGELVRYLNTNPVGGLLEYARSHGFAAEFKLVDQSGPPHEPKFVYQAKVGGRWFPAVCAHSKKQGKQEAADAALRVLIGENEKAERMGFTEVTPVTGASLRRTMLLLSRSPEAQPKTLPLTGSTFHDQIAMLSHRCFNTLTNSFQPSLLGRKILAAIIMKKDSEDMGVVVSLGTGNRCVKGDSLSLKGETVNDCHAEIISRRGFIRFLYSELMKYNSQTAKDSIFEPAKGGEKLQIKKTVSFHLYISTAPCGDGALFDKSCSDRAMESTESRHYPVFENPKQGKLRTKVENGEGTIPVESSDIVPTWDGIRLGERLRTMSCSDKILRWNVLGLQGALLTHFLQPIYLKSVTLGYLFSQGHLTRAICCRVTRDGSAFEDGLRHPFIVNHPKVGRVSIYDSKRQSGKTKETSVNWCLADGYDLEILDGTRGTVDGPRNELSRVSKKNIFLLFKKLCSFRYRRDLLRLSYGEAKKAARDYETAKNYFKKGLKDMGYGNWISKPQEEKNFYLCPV
Method: The in vitro editing reaction mixture, containing 5 nM of telomere RNA:RNA duplex substrates and 75 nM of HAT-ADAR1p110-WT, FLAG-ADAR1p110-WT, or HA-ADAR1p110-EAA protein, was incubated at 37° C. for 2 h in in vitro editing buffer I (20 mM HEPES-KOH PH 7.5, 100 mM NaCl, 0.01% NP-40, 5% glycerol, 1 mM DTT). For editing of RNA:DNA hybrid substrates, in vitro editing buffer II (20 mM HEPES-KOH PH 7.5, 20 mM NaCl, 0.01% NP-40, 5% glycerol, 1 mM DTT) was used. Edited RNA or DNA strands were purified using Dynabeads MyOne Streptavidin C1 (Thermo Fisher Scientific). To remove opposite RNA or DNA strands, rNase H (NEB) or TURBO dNase (Thermo Fisher Scientific) was used, respectively. For sequencing of edited substrates, reverse transcription-PCR was carried out for RNA strands, while PCR was carried out for DNA strands. RT reactions were carried out using SuperScript III Reverse Transcriptase (Thermo Fisher Scientific), and PCR reactions were performed using Platinum Taq DNA polymerase (Thermo Fisher Scientific). PCR products were sequenced using a specific sequencing primer, and the ratio of A and G peaks in the chromatograms were analyzed by CodonCode Aligner (CodonCode Corporation).
Seven additional analogs of ADAR1i-13 (FIG. 5A) were synthesized to determine structural characteristics required for ADAR1 editing inhibitory activity. […] In vitro editing IC50 values of ADAR1i-13, ADAR1i-120, and ADAR1i-124 (FIG. 5A) were similar, in the ~10-20 μM range, for both ADAR1p110 (FIG. 5A) and ADAR1p150 (not shown).

HuR = HuR (Homo sapiens, UniProt Q15717); assay: SPR binding to negative control protein HuR
Excerpt: FIGS. 5A-5D show Biacore SPR analysis for binding of ADAR1i to ADAR1p110. (FIG. 5A) SPR analysis for binding kinetics of 8 compounds to ADAR1p110-WT. ADAR1 inhibition positive (ADAR1i-13, ADAR1i-120, ADAR1i-124) and negative compounds. (FIG. 5B, FIG. 5C) […] of SPR analysis for binding of ADAR1i-13 and ADAR1i-124 to ADAR1p110-WT and ADAR1p110-E912A as well as negative control proteins, GAPDH and HuR, are shown. […] ADAR1-E912, equivalent of ADAR2 E396, is located in the catalytic center.

ADAR2 = target: T2, ADAR2 (Homo sapiens, UniProt P78563); assay: Binding to ADAR2 (not shown)
T2 sequence (P78563 1-741): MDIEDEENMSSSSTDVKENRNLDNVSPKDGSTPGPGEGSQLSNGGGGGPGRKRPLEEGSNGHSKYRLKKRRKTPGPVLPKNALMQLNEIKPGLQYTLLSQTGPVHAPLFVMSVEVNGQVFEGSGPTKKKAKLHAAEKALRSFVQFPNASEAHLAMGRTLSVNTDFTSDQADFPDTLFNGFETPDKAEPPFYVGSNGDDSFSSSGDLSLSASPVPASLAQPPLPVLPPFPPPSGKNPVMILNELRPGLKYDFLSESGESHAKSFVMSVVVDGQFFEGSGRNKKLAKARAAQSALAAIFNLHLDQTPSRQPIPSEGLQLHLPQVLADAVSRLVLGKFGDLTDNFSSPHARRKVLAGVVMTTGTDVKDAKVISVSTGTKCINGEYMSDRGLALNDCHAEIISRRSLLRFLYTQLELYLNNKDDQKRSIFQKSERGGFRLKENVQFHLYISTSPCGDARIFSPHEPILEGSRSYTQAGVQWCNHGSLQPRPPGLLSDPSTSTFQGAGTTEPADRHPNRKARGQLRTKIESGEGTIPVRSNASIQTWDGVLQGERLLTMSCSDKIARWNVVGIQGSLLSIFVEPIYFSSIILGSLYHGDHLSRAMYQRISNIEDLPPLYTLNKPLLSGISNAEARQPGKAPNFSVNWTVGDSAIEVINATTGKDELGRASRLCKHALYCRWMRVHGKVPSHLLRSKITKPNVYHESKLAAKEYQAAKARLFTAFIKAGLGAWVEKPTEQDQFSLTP

Sequence of HuR (Q15717 whole entry, species assumed): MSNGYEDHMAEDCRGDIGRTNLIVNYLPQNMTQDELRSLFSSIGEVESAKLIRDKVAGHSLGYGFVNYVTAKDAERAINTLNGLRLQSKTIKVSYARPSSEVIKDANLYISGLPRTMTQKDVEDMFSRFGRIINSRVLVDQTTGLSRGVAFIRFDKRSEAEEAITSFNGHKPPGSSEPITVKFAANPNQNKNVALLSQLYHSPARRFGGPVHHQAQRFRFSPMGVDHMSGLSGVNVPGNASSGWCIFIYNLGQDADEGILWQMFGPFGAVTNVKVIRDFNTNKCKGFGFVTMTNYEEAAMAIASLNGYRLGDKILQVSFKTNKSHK

| IC50 (ADAR1p150) [µM] | Structure (SMILES) | Binding to HuR (HuR) | Binding to ADAR2 (ADAR2) | Inhibition of ADAR1p150 (ADAR1p150; result in words) |
| --- | --- | --- | --- | --- |
| 10 to 20 | N#Cc1ccc(NC(=O)c2sc3ccccc3c2Cl)cc1 [ADAR1i-13, 3-chloro-N-(4-cyanophenyl)-1-benzothiophene-2-carboxamide] | did not bind | bound also to ADAR2 |  |
| 10 to 20 | N#Cc1ccccc1NC(=O)c1sc2ccccc2c1Cl [ADAR1i-120] |  |  |  |

| Structure (SMILES) | IC50 (ADAR1p150) [µM] | Binding to HuR (HuR) | Binding to ADAR2 (ADAR2) | Inhibition of ADAR1p150 (ADAR1p150; result in words) |
| --- | --- | --- | --- | --- |
| N#Cc1ccc(NC(=O)c2c(Cl)c3ccccc3n2CO)cc1 [ADAR1i-124] | 10 to 20 | did not bind | bound also to ADAR2 | inhibited both ADAR1p150 and ADAR1p-110 |
